Assay results published in ChEMBL document CHEMBL4706545, “Antiproliferative effect of mitochondria-targeting allobetulin 1,2,3-triazolium salt derivatives and their mechanism of inducing apoptosis of cancer cells” (Eur J Med Chem, 2020).
Active and inactive are the calls of the source. No cut-off for these calls is given here.

Tests used:
ECa-109 cell line [1] = assay: Induction of apoptosis in human ECa-109 cells assessed as late apoptotic cells at 2 uM incubated for 48 hrs by annexin-V-FITC and PI staining based fluorescence microscopic analysis (reference value: 2.01 %); format: functional
ECa-109 cell line [2] = assay: Induction of ROS-mediated apoptosis in human ECa-109 cells assessed as late apoptotic cells at 1 uM incubated for 48 hrs by annexin V-PE and 7-AAD staining based flow cytometry analysis (reference value: 3.89 %); format: functional
ECa-109 cell line [3] = assay: Induction of apoptosis in human ECa-109 cells assessed as early apoptotic cells at 4 uM incubated for 48 hrs by annexin-V-FITC and PI staining based fluorescence microscopic analysis (reference value: 0.971 %); format: functional
ECa-109 cell line [4] = assay: Induction of ROS-mediated apoptosis in human ECa-109 cells assessed as viable cells at 2 uM incubated for 48 hrs in presence of NAC by annexin V-PE and 7-AAD staining based flow cytometry analysis (reference value: 94 %); format: functional; conditions: read-out: Activity
ECa-109 cell line [5] = assay: Induction of cell cycle arrest in human ECa-109 cells assessed as accumulation in G0/G1 phase at 2 uM incubated for 48 hrs by PI staining based flow cytometry analysis (reference value: 52.28 %); format: functional
ECa-109 cell line [6] = assay: Induction of ROS-mediated apoptosis in human ECa-109 cells assessed as early apoptotic cells at 4 uM incubated for 48 hrs in presence of NAC by annexin V-PE and 7-AAD staining based flow cytometry analysis (reference value: 1.90 %); format: functional
ECa-109 cell line [7] = assay: Induction of ROS-mediated apoptosis in human ECa-109 cells assessed as necrotic cells at 4 uM incubated for 48 hrs in presence of NAC by annexin V-PE and 7-AAD staining based flow cytometry analysis (reference value: 1.09 %); format: functional
ECa-109 cell line [8] = assay: Induction of ROS-mediated apoptosis in human ECa-109 cells assessed as necrotic cells at 2 uM incubated for 48 hrs by annexin V-PE and 7-AAD staining based flow cytometry analysis (reference value: 0.729 %); format: functional
ECa-109 cell line [9] = assay: Induction of ROS-mediated apoptosis in human ECa-109 cells assessed as early apoptotic cells at 2 uM incubated for 48 hrs in presence of NAC by annexin V-PE and 7-AAD staining based flow cytometry analysis (reference value: 1.90 %); format: functional
ECa-109 cell line [10] = assay: Induction of apoptosis in human ECa-109 cells assessed as decrease in caspase-8 incubated for 48 hrs by Western blot analysis; format: functional, cell-based; conditions: dose 1-4 µM
ECa-109 cell line [11] = assay: Induction of cell cycle arrest in human ECa-109 cells assessed as accumulation in G0/G1 phase at 4 uM incubated for 48 hrs by PI staining based flow cytometry analysis (reference value: 52.28 %); format: functional
ECa-109 cell line [12] = assay: Induction of apoptosis in human ECa-109 cells assessed as nuclear fragmentation at 1 to 4 uM incubated for 48 hrs by Hoechst staining based fluorescence microscopic analysis; format: functional, cell-based; conditions: dose 1-4 µM
ECa-109 cell line [13] = assay: Induction of ROS-mediated apoptosis in human ECa-109 cells assessed as early apoptotic cells at 1 uM incubated for 48 hrs in presence of NAC by annexin V-PE and 7-AAD staining based flow cytometry analysis (reference value: 1.90 %); format: functional
ECa-109 cell line [14] = assay: Induction of ROS-mediated apoptosis in human ECa-109 cells assessed as viable cells at 1 uM incubated for 48 hrs in presence of NAC by annexin V-PE and 7-AAD staining based flow cytometry analysis (reference value: 94 %); format: functional; conditions: read-out: Activity
ECa-109 cell line [15] = assay: Induction of ROS-mediated apoptosis in human ECa-109 cells assessed as viable cells at 1 uM incubated for 48 hrs by annexin V-PE and 7-AAD staining based flow cytometry analysis (reference value: 92.7 %); format: functional; conditions: read-out: Activity
SGC-7901 [16] = assay: Induction of apoptosis in human SGC-7901 cells assessed as late apoptotic cells at 2 uM incubated for 48 hrs by annexin-V-FITC and PI staining based fluorescence microscopic analysis (reference value: 3.87 %); format: functional
SGC-7901 [17] = assay: Induction of apoptosis in human SGC-7901 cells assessed as nuclear fragmentation at 1 to 4 uM incubated for 48 hrs by Hoechst staining based fluorescence microscopic analysis; format: functional, cell-based; conditions: dose 1-4 µM
ECa-109 cell line [18] = assay: Induction of apoptosis in human ECa-109 cells assessed as decrease in PARP incubated for 48 hrs by Western blot analysis; format: functional, cell-based; conditions: dose 1-4 µM
SGC-7901 [19] = assay: Induction of ROS-mediated apoptosis in human SGC-7901 cells assessed as early apoptotic cells at 4 uM incubated for 48 hrs by annexin V-PE and 7-AAD staining based flow cytometry analysis (reference value: 1.89 %); format: functional
SGC-7901 [20] = assay: Induction of apoptosis in human SGC-7901 cells assessed as viable cells at 2 uM incubated for 48 hrs by annexin-V-FITC and PI staining based fluorescence microscopic analysis (reference value: 93.8 %); format: functional; conditions: read-out: Activity
SGC-7901 [21] = assay: Induction of ROS-mediated apoptosis in human SGC-7901 cells assessed as early apoptotic cells at 1 uM incubated for 48 hrs by annexin V-PE and 7-AAD staining based flow cytometry analysis (reference value: 1.89 %); format: functional
SGC-7901 [22] = assay: Induction of cell cycle arrest in human SGC-7901 cells assessed as accumulation in G0/G1 phase at 1 uM incubated for 48 hrs by PI staining based flow cytometry analysis (reference value: 57.39 %); format: functional
SGC-7901 [23] = assay: Induction of apoptosis in human SGC-7901 cells assessed as late apoptotic cells at 1 uM incubated for 48 hrs by annexin-V-FITC and PI staining based fluorescence microscopic analysis (reference value: 3.87 %); format: functional
SGC-7901 [24] = assay: Induction of cell cycle arrest in human SGC-7901 cells assessed as accumulation in S phase at 1 uM incubated for 48 hrs by PI staining based flow cytometry analysis (reference value: 31.13 %); format: functional
SGC-7901 [25] = assay: Induction of apoptosis in human SGC-7901 cells assessed as early apoptotic cells at 4 uM incubated for 48 hrs by annexin-V-FITC and PI staining based fluorescence microscopic analysis (reference value: 1.87 %); format: functional

COc1ccccc1Cn1n[n+](C)c2c1C(C)(C)[C@@H]1CC[C@]3(C)[C@H](CC[C@@H]4[C@H]5[C@H]6OC[C@@]5(CCC6(C)C)CC[C@]43C)[C@@]1(C)C2.[I-] gave an Activity (ECa-109 cell line [1]) of 23%, an Activity (ECa-109 cell line [2]) of 18.6% and an Activity (ECa-109 cell line [3]) of 2.92%. The viability at 2 µM (ECa-109 cell line [4]) was 66.2%, the Activity (ECa-109 cell line [5]) was 42.96% and the Activity (ECa-109 cell line [6]) was 3.5%. The Activity (ECa-109 cell line [7]) was 3.83%, the Activity (ECa-109 cell line [8]) was 4.87% and the Activity (ECa-109 cell line [9]) was 10.1%. The Activity (ECa-109 cell line [10]) was “Dose-dependent effect”, the Activity (ECa-109 cell line [11]) was 33.47% and the Activity (ECa-109 cell line [12]) was “Active”. For the same compound, the Activity (ECa-109 cell line [13]) was 8.01%, the viability at 1 µM (ECa-109 cell line [14]) was 76.2% and the viability at 1 µM (ECa-109 cell line [15]) was 66.9%.

With C[n+]1nn(Cc2c(F)cccc2Cl)c2c1C[C@]1(C)[C@H]3CC[C@@H]4[C@H]5[C@H]6OC[C@@]5(CCC6(C)C)CC[C@@]4(C)[C@]3(C)CC[C@H]1C2(C)C.[I-] the Activity (SGC-7901 [16]) was 8.46%, the Activity (SGC-7901 [17]) was “Active” and the Activity (ECa-109 cell line [18]) was “Dose-dependent effect”. It also gave an Activity (SGC-7901 [19]) of 0.199%, a viability at 2 µM (SGC-7901 [20]) of 64.6% and an Activity (SGC-7901 [21]) of 13.7%. It also gave an Activity (SGC-7901 [22]) of 80.42%, an Activity (SGC-7901 [23]) of 4.79% and an Activity (SGC-7901 [24]) of 14.19%. It also gave an Activity (SGC-7901 [25]) of 2.07%.
